Patent US20240358829A1, “Lymphocyte Population and Methods for Producing Same” (AVM Biotechnology, LLC, priority 2021, published 2024)
Entries after “also recorded” stand apart in the source; their conditions may differ.

Assays:
[1] = system: peripheral blood mononuclear cells or single cell splenocytes; assay: In vitro apoptosis of mononuclear cells or splenocytes incubated with AVM0703; assay type: cell-based, mouse; settings: concentrations equivalent to in vivo peak blood concentrations of acute high dose, out to 72 hours
[2] = system: AVM-NKT cells (CD45 dim, CD56 very bright); assay: Flow cytometry of human subjects treated with acute high doses of dexamethasone (Example 7); assay type: in vivo; settings: prostate cancer patient, 6 mg/kg (fourth infusion)
[3] = system: CD56+γδTCR+ NKT-like cells
Method: For characterisation of the induced/mobilized population of NKT-like cells (AVM-NKT) in humans, whole blood from human subjects was drawn in K2 EDTA Vacutainer tube (367862, BD Biosciences, NJ) and shipped to AVM Biotechnology at room temperature. 100 μl of whole blood was stained with the following antibodies: CD45 AF700 (2D1), CD16 APC (3G8), INKT PECy7 (6B11), CD8 PE (SK1), CD14 FITC (M5E2), CD56 BV650 (5.1H11), γδTCR BV510 (B1), CD19 BV421 (HIB19), NKp44 APC (P44-8) (all from Biolegend, San Diego, CA) and CD3 APCVio770 (BW264/56), (Miltenyi Biotec, San Jose, CA), 7-AAD, (Biolegend, San Diego CA) was included to distinguish the live and dead cells. Antibody staining was performed for 15 minutes at room temperature. Erythrocytes present in the sample were lysed using BD FACS lyse (BD Biosciences, San Diego CA) for 10 minutes at room temperature, then washed and resuspended in 300 μl 1×DPBS CMF. Healthy patient blood from BloodWorks (Seattle, WA), unstained and fluorescence minus one (FMO) were included as controls. 250 μl sample was analyzed on MACSQuant 16 (Serial #40150, Miltenyi Biotec, San Jose, CA) flow cytometer. Data was analyzed using Kaluza 2.1 (Beckman Coulter Lifesciences, Indianapolis, IN) software for different immune population. Data obtained from flow cytometry analyzed by Kaluza were combined to determine different cell populations gated from Live CD45 Lymphocytes: CD3+ T cell, CD8+ cytotoxic T cell, CD3+CD56+ (NKT cells) CD3-CD56+, CD3-CD56bright (NK cells) and CD3-CD19+ (B cells), CD3+γδTCR+ cells, CD3+γδTCR bright cells, CD3+iTCR+ cells, Live WBC CD3-CD16bright granulocytes, Live WBC CD3-CD14+ monocytes. Numbers were reported as % WBC and as cells per μl.

[4] = AVM0703 R/R NHL clinical trial, blood counts; assay type: in vivo, human

Structure (SMILES): C[C@@H]1C[C@H]2[C@@H]3CCC4=CC(=O)C=C[C@]4(C)[C@@]3(F)[C@@H](O)C[C@]2(C)[C@@]1(O)C(=O)COP(=O)(O)O [AVM0703, dexamethasone sodium phosphate]
- apoptosis [1]: no apoptosis was observed
- novel CD45dim CD56 very bright cell population in blood ([2]; 1 hour after infusion, 6 mg/kg): observed; also recorded: evident
- novel CD45dim CD56 very bright cell population in blood ([2]; 3 hours after infusion): no longer observed
- % of the CD56+ cells positive for both γδTCR and iTCR ([3]; lysed whole blood, FIG. 14): 51%
- CD8 dim/-, % CD56+γδTCR+ ([3]; representative subject): ~98%
- CD14+, % CD56+γδTCR+ ([3]; representative subject): 67%
- CD16+, % CD56+γδTCR+ ([3]; representative subject): 86%
- CD19+, % CD56+γδTCR+ ([3]; representative subject): 85%
- NKp44 positive, % CD56+γδTCR+ ([3]; representative subject): ~97%
- iNKT positive, % CD56+γδTCR+ ([3]; representative subject): ~96%
- CD56+γδTCR+ cells, % of WBC ([3]; whole blood, within 30 minutes post infusion): 1.64%
- CD16 and NKp46 expression, % of the AVM_NKT cells ([3]; γδTCR+iTCR+ quadrant, FIG. 14): ~100%
- WBCs, lymphocytes, platelets and RBCs ([4]; AVM0703-001 dose-escalation phase, doses between 6 mg/kg and 18 mg/kg): not depleted
- hemoglobin ([4]; R/R MCL patient, after 9 mg/kg infusion): clinically significantly increased
- Absolute lymphocyte counts (lymphocytosis) ([4]; patient 103-007 (mantle cell lymphoma), 12 mg/kg infusion, between day 4 and 7, 12 mg/kg): reduced to normal lymphocyte levels; also recorded: reduced lymphocytes
- monocytes, platelets, hematocrit and RBCs ([4]; patient 103-007, 12 mg/kg): spares normal blood cells; also recorded: not reduced
- neutrophils ([4]; patients in the AVM0703-001 trial in R/R NHL): some evidence of increased neutrophils
